Key:
Assay type in all cases: in vivo, human
[1] = system: people who had any unpleasant symptom before menstruation; experiment: Combined administration test of γ-tocopherol and equol, MDQ questionnaire; settings: suggested by the results of Test Example 1 and Test Example 2; equol alone not administered
[2] = system: people who had fluid retention before menstruation; experiment: Administration test of γ-tocopherol alone, MDQ questionnaire; settings: 360 mg/day γ-tocopherol, 7 days, 25 people
Description: (§1) Twenty-five people who had fluid retention before menstruation were subjected to randomly-assigned placebo-controlled double-blind tested group comparative study. […] An evaluation period is between the morning of the 6th day after the start of the continuous ingestion and the morning of the 8th day […]. Evaluation by questionnaires was conducted before every meal. An average value of variations from a start value of the evaluation was obtained to compare the tested group with the placebo group.
(§2) The evaluation by questionnaires was conducted by VAS (visual analog scale) and MDQ (menstrual distress questionnaire).
(§3) For VAS, the subjects indicated their symptoms about each questionnaire on a scale of “0 mm” (no symptom) to “100 mm” (the symptom is very strong/the symptom affects daily living), and an average value of variations from a start value of the evaluation was calculated. For MDQ, the subjects answered each questionnaire on a six-point scale of “0” (no symptom) to “5” (the symptom is very strong/the symptom affects daily living).

[3] = system: people who had fluid retention before menstruation; experiment: Administration test of γ-tocopherol alone, VAS questionnaire; settings: 360 mg/day γ-tocopherol, 7 days, 25 people, placebo-controlled double-blind
Description: as §1, §2, §3

| SMILES | effects of equol alone on "pain", "negative emotion", "concentration ability" and "change in behavior" [1] | proportion of people who had decreased MDQ scores as compared with the placebo group, "change in behavior" [2] [%] | proportion of people who had decreased MDQ scores as compared with the placebo group, item "concentration ability" [2] [%] | proportion of people who had decreased MDQ scores as compared with the placebo group, item "fluid retention" [2] [%] | proportion of people who had decreased MDQ scores as compared with the placebo group, item "negative emotion" [2] [%] | proportion of people who had decreased MDQ scores as compared with the placebo group, item "pain" [2] [%] | VAS "annoyance or irritability" (mental unpleasant symptoms) as compared with a placebo group [3] | VAS leg swelling (physical unpleasant symptoms) as compared with a placebo group [3] |
| --- | --- | --- | --- | --- | --- | --- | --- | --- |
| Oc1ccc(C2COc3cc(O)ccc3C2)cc1 (centres unmarked) [equol] | has effects | – | – | – | – | – | – | – |
| Cc1c(O)cc2c(c1C)O[C@](C)(CCC[C@H](C)CCC[C@H](C)CCCC(C)C)CC2 [γ-tocopherol] | – | 32.0 | 36.0 | 56.0 | 28.0 | 44.0 | significant amelioration | significant amelioration |

From US20210361616A1, “AMELIORATING AGENT FOR FEMALE-SPECIFIC PHYSICAL AND/OR MENTAL UNPLEASANT SYMPTOM” (OTSUKA PHARMACEUTICAL CO., LTD., priority 2016, published 2021)
